pIC50: −log10 of the molar value. Structures can show the parent of a compound that is named as a salt.
The compounds below were run against Untagged CRBN-DDB1 complex (Homo sapiens (Human), UniProt Q96SW2) (assay: Fluorescence Polarization (FP) assay, displacement of Cy5-labeled thalidomide). Details: untagged CRBN-DDB1 50 nM, Cy5-labeled thalidomide 20 nM, 10 min room temperature.
Type: binding
Method: The final solution contained 50 mM HEPES, 200 mM NaCl and 2 mM DTT, pH 7.5. The mixtures were incubated at room temperature for 10 min. The FP signals were recorded on an EnVision plate reader (Perkin Elmer) using the following settings: Excitation Light (%): 100; Measurement Height: 12; G-Factor: 1; Detector Gain 1: 500; Detector Gain 2: 500; Flash Number: 100. Dose-dependent loss of FP signals was fitted by four-parameter Logistic Function using GraphPad Prism 7.0 and the IC50 values were reported for each compound.

Sequence of Untagged CRBN-DDB1 complex (Q96SW2 whole entry): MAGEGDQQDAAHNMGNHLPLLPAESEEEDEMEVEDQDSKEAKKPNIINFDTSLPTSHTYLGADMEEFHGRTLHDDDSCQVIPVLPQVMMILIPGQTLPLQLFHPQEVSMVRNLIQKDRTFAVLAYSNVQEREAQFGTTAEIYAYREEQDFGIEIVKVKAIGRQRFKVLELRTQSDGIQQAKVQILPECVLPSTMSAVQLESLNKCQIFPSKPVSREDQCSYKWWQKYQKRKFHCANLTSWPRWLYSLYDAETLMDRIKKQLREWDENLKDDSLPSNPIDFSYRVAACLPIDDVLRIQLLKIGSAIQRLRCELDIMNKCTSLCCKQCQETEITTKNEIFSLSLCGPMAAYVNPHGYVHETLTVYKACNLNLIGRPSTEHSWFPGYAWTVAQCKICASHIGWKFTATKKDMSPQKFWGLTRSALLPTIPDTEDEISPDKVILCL
Sequence of Untagged CRBN-DDB1 complex (Q16531 whole entry partner): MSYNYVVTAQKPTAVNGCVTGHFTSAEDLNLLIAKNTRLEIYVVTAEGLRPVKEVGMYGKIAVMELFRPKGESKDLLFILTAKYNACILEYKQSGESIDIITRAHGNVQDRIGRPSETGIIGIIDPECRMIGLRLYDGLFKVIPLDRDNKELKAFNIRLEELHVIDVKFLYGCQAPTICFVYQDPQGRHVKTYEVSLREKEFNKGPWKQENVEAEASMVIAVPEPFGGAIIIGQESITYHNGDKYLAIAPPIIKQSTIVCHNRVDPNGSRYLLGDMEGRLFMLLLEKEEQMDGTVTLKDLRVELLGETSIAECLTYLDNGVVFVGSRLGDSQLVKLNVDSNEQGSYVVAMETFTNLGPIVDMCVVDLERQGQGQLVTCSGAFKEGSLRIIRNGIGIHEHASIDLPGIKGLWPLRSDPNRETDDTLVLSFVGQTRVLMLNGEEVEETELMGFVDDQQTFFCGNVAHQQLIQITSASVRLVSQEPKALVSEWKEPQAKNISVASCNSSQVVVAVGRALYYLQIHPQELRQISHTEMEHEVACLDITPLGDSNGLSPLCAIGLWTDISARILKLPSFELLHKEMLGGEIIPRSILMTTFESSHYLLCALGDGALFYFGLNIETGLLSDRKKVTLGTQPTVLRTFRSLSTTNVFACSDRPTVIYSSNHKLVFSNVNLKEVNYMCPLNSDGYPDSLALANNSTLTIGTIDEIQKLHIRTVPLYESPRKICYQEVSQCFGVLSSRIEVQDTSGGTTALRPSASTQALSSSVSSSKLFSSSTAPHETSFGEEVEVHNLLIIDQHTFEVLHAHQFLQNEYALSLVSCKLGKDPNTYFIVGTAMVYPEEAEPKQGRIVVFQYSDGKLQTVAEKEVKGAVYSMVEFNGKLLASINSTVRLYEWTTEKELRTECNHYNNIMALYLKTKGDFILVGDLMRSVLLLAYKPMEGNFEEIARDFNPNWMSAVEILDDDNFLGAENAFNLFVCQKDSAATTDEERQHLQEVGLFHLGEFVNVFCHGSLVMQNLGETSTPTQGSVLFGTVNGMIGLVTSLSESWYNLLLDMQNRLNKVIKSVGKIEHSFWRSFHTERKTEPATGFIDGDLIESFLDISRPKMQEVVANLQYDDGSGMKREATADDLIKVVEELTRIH

Row | Compound | pIC50
1 | O=C1CCC(N2C(=O)Cc3ccccc32)C(=O)N1 (centres unmarked) [Compound I-3, 3-(2-Oxo-2,3-dihydro-1H-indol-1-yl)piperidine-2,6-dione] | < 4.00

These compounds were tested against His-tagged CRBN-DDB1 complex (Homo sapiens (Human), UniProt Q96SW2) (assay: Time-Resolved Fluorescence Resonance Energy Transfer (TR-FRET) assay, displacement of Cy5-labeled thalidomide). Details: read-out: CRBN HTRF IC50.
Type: binding
Method: The mixture were incubated at room temperature for 1 hour. […] Quantitative loss of FRET efficiency as a function of compound concentrations was fitted by a four-parameter Logistic Function using GraphPad Prism 7.0 and the IC50 values were reported for each compound.

Sequence of His-tagged CRBN-DDB1 complex (Q96SW2 whole entry): as the sequence (Q96SW2 whole entry) above
Sequence of His-tagged CRBN-DDB1 complex (Q16531 whole entry partner): as the sequence (Q16531 whole entry partner) above

Row | Compound | pIC50
2 | O=C1CC[C@H](N2C[C@H](c3ccc(Br)cc3)OC2=O)C(=O)N1 [Compound I-73, (S)-3-((S)-5-(4-bromophenyl)-2-oxooxazolidin-3-yl)piperidine-2,6-dione] | 4.00 to 5.00
3 | CNC(=O)c1ccc2c(c1)n(C)c(=O)n2C1CCC(=O)NC1=O (centres unmarked) [Compound I-70, 1-(2,6-Dioxopiperidin-3-yl)-N,3-dimethyl-2-oxo-2,3-dihydro-1H-benzo[d]imidazole-5-carboxamide] | 5.00 to 6.00
4 | O=C1CCC(N2C(=O)Cc3ccccc32)C(=O)N1 (centres unmarked) [Compound I-3, 3-(2-Oxo-2,3-dihydro-1H-indol-1-yl)piperidine-2,6-dione] | 4.00 to 5.00
5 | Cn1c(=O)n(C2CCC(=O)NC2=O)c2ccc(C(N)=O)cc21 (centres unmarked) [Compound I-90, 1-(2,6-dioxopiperidin-3-yl)-3-methyl-2-oxo-2,3-dihydro-1H-benzo[d]imidazole-5-carboxamide] | < 4.00
6 | CC(=O)NCc1ccc2c(c1)n(C)c(=O)n2C1CCC(=O)NC1=O (centres unmarked) [Compound I-66, N-((1-(2,6-dioxopiperidin-3-yl)-3-methyl-2-oxo-2,3-dihydro-1H-benzo[d]imidazol-5-yl)methyl)acetamide] | > 6.00
7 | CC(C)(C)OC(=O)NCCOCCOCCOCCOCCCc1ccc([C@H]2CN(C3CCC(=O)NC3=O)C(=O)O2)cc1 (stereo partly drawn) [Compound I-83, tert-butyl (15-(4-((5S)-3-(2,6-dioxopiperidin-3-yl)-2-oxooxazolidin-5-yl)phenyl)-3,6,9,12-tetraoxapentadecyl)carbamate] | > 6.00
8 | Cn1c(=O)n(C2CCC(=O)NC2=O)c2ccc(CCCOCCOCCOCCOCCNC(=O)OC(C)(C)C)cc21 (centres unmarked) [Compound I-85, tert-butyl (15-(1-(2,6-dioxopiperidin-3-yl)-3-methyl-2-oxo-2,3-dihydro-1H-benzo[d]imidazol-5-yl)-3,6,9,12-tetraoxapentadecyl)carbamate] | > 6.00
9 | Cc1ccc2c(c1)n(C)c(=O)n2C1CCC(=O)NC1=O (centres unmarked) [Compound I-63, 3-(3,5-dimethyl-2-oxo-2,3-dihydro-1H-benzo[d]imidazol-1-yl)piperidine-2,6-dione] | > 6.00
10 | Cc1nc(-c2ccc3c(c2)n(C)c(=O)n3C2CCC(=O)NC2=O)c[nH]1 (centres unmarked) [Compound I-80, 3-(3-methyl-5-(2-methyl-1H-imidazol-5-yl)-2-oxo-2,3-dihydro-1H-benzo[d]imidazol-1-yl)piperidine-2,6-dione] | > 6.00
11 | CCNC(=O)NCc1ccc2c(c1)n(C)c(=O)n2C1CCC(=O)NC1=O (centres unmarked) [Compound I-71, 1-((1-(2,6-dioxopiperidin-3-yl)-3-methyl-2-oxo-2,3-dihydro-1H-benzo[d]imidazol-5-yl)methyl)-3-ethylurea] | > 6.00
12 | Cn1c(=O)n(C2CCC(=O)NC2=O)c2cccc(N)c21 (centres unmarked) [Compound I-81, 3-(4-amino-3-methyl-2-oxo-2,3-dihydro-1H-benzo[d]imidazol-1-yl)piperidine-2,6-dione] | > 6.00
13 | CN(C)Cc1ccc2c(c1)n(C)c(=O)n2C1CCC(=O)NC1=O (centres unmarked) [Compound I-61, 3-(5-((dimethylamino)methyl)-3-methyl-2-oxo-2,3-dihydro-1H-benzo[d]imidazol-1-yl)piperidine-2,6-dione] | 5.00 to 6.00
14 | CN(C)c1ccc2c(c1)n(C)c(=O)n2C1CCC(=O)NC1=O (centres unmarked) [Compound I-69, 3-(5-(dimethylamino)-3-methyl-2-oxo-2,3-dihydro-1H-benzo[d]imidazol-1-yl)piperidine-2,6-dione] | > 6.00
15 | CC(=O)Nc1ccc2c(c1)n(C)c(=O)n2C1CCC(=O)NC1=O (centres unmarked) [Compound I-62, N-(1-(2,6-dioxopiperidin-3-yl)-3-methyl-2-oxo-2,3-dihydro-1H-benzo[d]imidazol-5-yl)acetamide] | > 6.00
16 | O=C1CC[C@@H](N2C[C@H](c3ccc(Br)cc3)OC2=O)C(=O)N1 [Compound I-72, (R)-3-((S)-5-(4-bromophenyl)-2-oxooxazolidin-3-yl)piperidine-2,6-dione] | > 6.00
17 | CCNC(=O)Nc1ccc2c(c1)n(C)c(=O)n2C1CCC(=O)NC1=O (centres unmarked) [Compound I-67, 1-(1-(2,6-dioxopiperidin-3-yl)-3-methyl-2-oxo-2,3-dihydro-1H-benzo[d]imidazol-5-yl)-3-ethylurea] | > 6.00
18 | Cn1c(=O)n(C2CCC(=O)NC2=O)c2ccc(CNC(N)=O)cc21 (centres unmarked) [Compound I-74, 1-((1-(2,6-dioxopiperidin-3-yl)-3-methyl-2-oxo-2,3-dihydro-1H-benzo[d]imidazol-5-yl)methyl)urea] | > 6.00
19 | Cc1cc(-c2ccc3c(c2)n(C)c(=O)n3C2CCC(=O)NC2=O)n[nH]1 (centres unmarked) [Compound I-79, 3-(3-methyl-5-(3-methyl-1H-pyrazol-5-yl)-2-oxo-2,3-dihydro-1H-benzo[d]imidazol-1-yl)piperidine-2,6-dione] | > 6.00

More lines, now with the values ahead:

Row | pIC50 | Compound
20 | > 6.00 | Cn1c(=O)n(C2CCC(=O)NC2=O)c2cccc(C#CCOCCOCCNC(=O)OC(C)(C)C)c21 (centres unmarked) [Compound I-86, tert-butyl (2-(2-((3-(1-(2,6-dioxopiperidin-3-yl)-3-methyl-2-oxo-2,3-dihydro-1H-benzo[d]imidazol-4-yl)prop-2-yn-1-yl)oxy)ethoxy)ethyl)carbamate]
21 | > 6.00 | Cn1c(=O)n(C2CCC(=O)NC2=O)c2ccc(CN)cc21 (centres unmarked) [Compound I-64, 3-(5-(Aminomethyl)-3-methyl-2-oxo-2,3-dihydro-1H-benzo[d]imidazol-1-yl)piperidine-2,6-dione]
22 | > 6.00 | Cn1c(=O)n(C2CCC(=O)NC2=O)c2ccc(-c3cn(CCOCCOCCOCCNC(=O)OC(C)(C)C)nn3)cc21 (centres unmarked) [Compound I-82, tert-butyl (2-(2-(2-(2-(4-(1-(2,6-dioxopiperidin-3-yl)-3-methyl-2-oxo-2,3-dihydro-1H-benzo[d]imidazol-5-yl)-1H-1,2,3-triazol-1-yl)ethoxy)ethoxy)ethoxy)ethyl)carbamate]
23 | > 6.00 | CNc1ccc2c(c1)n(C)c(=O)n2C1CCC(=O)NC1=O (centres unmarked) [Compound I-68, 3-(3-methyl-5-(methylamino)-2-oxo-2,3-dihydro-1H-benzo[d]imidazol-1-yl)piperidine-2,6-dione]
24 | > 6.00 | CC(C)(C)OC(=O)NCCOCCOCCOCCOCC#Cc1ccc([C@H]2CN([C@H]3CCC(=O)NC3=O)C(=O)O2)cc1 [Compound I-77, tert-butyl (15-(4-((S)-3-((S)-2,6-dioxopiperidin-3-yl)-2-oxooxazolidin-5-yl)phenyl)-3,6,9,12-tetraoxapentadec-14-yn-1-yl)carbamate]
25 | > 6.00 | Cn1c(=O)n(C2CCC(=O)NC2=O)c2cccc(C#N)c21 (centres unmarked) [Compound I-78]
26 | > 6.00 | Cn1c(=O)n(C2CCC(=O)NC2=O)c2cccc([N+](=O)[O-])c21 (centres unmarked) [Compound I-75, 3-(3-methyl-4-nitro-2-oxo-2,3-dihydro-1H-1,3-benzodiazol-1-yl)piperidine-2,6-dione]
27 | > 6.00 | CCOC(=O)NCc1ccc2c(c1)n(C)c(=O)n2C1CCC(=O)NC1=O (centres unmarked) [Compound I-76, ethyl ((1-(2,6-dioxopiperidin-3-yl)-3-methyl-2-oxo-2,3-dihydro-1H-benzo[d]imidazol-5-yl)methyl)carbamate]
28 | > 6.00 | O=C1CCC(N2C[C@H](c3cccc(Br)c3)OC2=O)C(=O)N1 (single isomer, unassigned) [Compound I-84, (R)-3-((S)-5-(3-bromophenyl)-2-oxooxazolidin-3-yl)piperidine-2,6-dione or (S)-3-((S)-5-(3-bromophenyl)-2-oxooxazolidin-3-yl)piperidine-2,6-dione]
29 | > 6.00 | Cn1c(=O)n(C2CCC(=O)NC2=O)c2ccc(N)cc21 (centres unmarked) [Compound I-65, 3-(5-Amino-3-methyl-2-oxo-2,3-dihydro-1H-1,3-benzodiazol-1-yl)piperidine-2,6-dione Hydrochloride]
